Laboratory results published in PMC11790763, “A Peptide Motif Covering Splice Site B in Neuroligin-1 Binds to Aβ and Acts as a Neprilysin Inhibitor” (Molecular Neurobiology, 2024).
Bridges are numbered along the chain shown (N, C = ends). Roman numbers before positions name the chains, in order. Where no end group is shown, it is not given here.

Experiments:
Aβ1-40 = molecular target: T1, Aβ1-40 (Homo sapiens, UniProt P05067); assay: Competitive ELISA, binding to biotinylated Aβ1-40
T1 construct: biotinylated Aβ1-40, at final concentration 400 nM; purchased Bachem AG (Bubendorf, Switzerland) or Schafer-N; host or cells: synthetic peptide
Protocol: NL1 and NL1-derived peptide binding to Aβ was measured by competitive ELISA using the shorter Aβ1-40 peptide with a slower polymerization constant, optimized for this binding assay. Recombinant NL1 (3.125 nM) was immobilized on a poly-sorb 96-well plate (NUNC, Roskilde, Denmark) using sodium bicarbonate buffer (pH 9.6), and left overnight at 4 °C, followed by washing with PBST buffer (PBS supplemented with 0.1% [vol/vol] Tween-20, pH 7.4). In separate tubes, biotinylated Aβ1-40, at final concentration 400 nM, was premixed with serially diluted NL1 or NL1-derived peptides for 30 min. A reversed version of Aβ (Aβ40-1) was used as the respective negative control (Supplementary Fig. 1). After preincubation, the samples were centrifuged at 20,000 × g for 10 min at 4 °C and 100 μl of the mixtures were transferred in triplicates onto the precoated ELISA plate. Plates were incubated at room temperature for 4 h, followed by washing and incubation with streptavidin-HRP conjugate (1:1000, 1 h; Dako, Glostrup, Denmark). The signal was developed with TMB ONE (KEM-EN-TEC, Denmark), and the reaction was terminated with 0.2 M H2SO4. Absorbance was measured at 450 nm on a Wallac VICTOR2 1420 Multilabel Counter (PerkinElmer, Hvidovre, Denmark). KD values were derived by sigmoidal dose–response (variable slope) fit of NL1 and neurolide dose–response curves after log transformation according to GraphPad Prism (version 6, GraphPad, San Diego, CA, USA). Obtained inhibitory concentration IC50 value was interpreted as KD value.

WT and 5XFAD mice = assay: Y-maze test; format: in vivo, mouse; conditions: 10 mg/kg s.c. three times a week for 10 weeks
Protocol: (§1) At the age of 2 months, 5XFAD and WT mice were injected subcutaneously (s.c.) with either neurolide (10 mg/kg) or saline in a volume of 0.1 ml/10 g of body weight three times a week for 10 weeks.
To estimate the effect of neurolide on spatial working memory, the Y-maze test was used, wherein the recording of alternation behavior was assessed. Mice were placed in the middle of the three-arm maze, joined with equal angle between all arms, and allowed to explore the maze freely for 8 min. The sequence and total number of entries into each arm were assessed in video recordings. Arm entry was considered completed when the hind paws of the mouse had been placed in the arm. An actual alternation was defined as entries into all three arms on consecutive choices. Percentage alternation was calculated as the ratio of actual to possible alternation (defined as total number of arm entries − 2) × 100, as follows: %Alternation=Number of alternations/Total arm entries-2×100.

5XFAD and WT mice = assay: Aβ plaque load, Thioflavin-S staining of brain sections; format: in vivo, mouse
Protocol: as §1
After 10 weeks of treatment, mice were transcardially perfused with 0.1 M PBS, pH 7.4 under deep pentobarbital anesthesia (intraperitoneal, 200 mg/kg). The left brain hemispheres were postfixed in 4% paraformaldehyde in PBS. The brain hemispheres were further dehydrated in ethanol, cleared, embedded in paraffin blocks and serially sectioned into 7-μm coronal sections through the entire brain hemisphere. Parallel series of sections were collected, consisting of 12 equally spaced Sects. (400 μm apart). One of the series was stained with 1% Thioflavin-S for histological evaluation of Aβ plaque formation. Another series was used for immunohistochemical staining of GFAP + astrocytes as described previously. Extracellular Aβ plaque load was assessed in cortex, hippocampus, striatum, thalamus, and hypothalamus. GFAP-positive astrocytes were assessed in motor cortex. Serial super images of whole-brain sections were acquired using an Olympus BX-51 microscope equipped with the Visiopharm Integrator System software (Visiopharm) and analyzed using the ImageJ software package. The pictures were converted to 8-bit images, and the area of interest was marked. The intensity threshold was fixed to fit Thioflavin-S or GFAP signal. The area, covered by Thioflavin-S or GFAP staining, was measured in selected regions.

rats = conditions: cited from earlier work
Aβ1-42 = conditions: NL1 at 1 nM; cited from earlier work
Description: This higher accumulation of Aβ plaques promoted by the neurolide treatment prompted us to look for an explanation for this phenome ...

[1] = 5XFAD mice, 10 mg/kg s.c. three times a week for 10 weeks, neurolide n = 11 versus saline n = 13

T1 sequence (P05067 672-711): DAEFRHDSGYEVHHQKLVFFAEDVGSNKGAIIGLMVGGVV

Molecule: I: SEGNRWSNSTKGLFQRAKK-NH2 / II: SEGNRWSNSTKGLFQRAK / III: SEGNRWSNSTKGLFQRA / IV: SEGNRWSNSTKGLFQRA (amide I:18-IV:C, I:19-II:C, II:18-III:C; C-terminus assumed) [neurolide]
- binding affinity to Aβ, times lower than that of the parent sNL1 domain (Aβ1-40): approximately 2 times
- Y-maze number of arms entered (WT and 5XFAD mice; p-value for treatment 0.9532): had no effect
- Y-maze alternation rate (WT and 5XFAD mice; test at week 11): had no effect
- average size of thioflavin-S-positive plaques in the cortex (5XFAD and WT mice; [1]): significant increase
- fractional area of thioflavin-S-positive plaques in the cortex (5XFAD and WT mice; [1]): significant increase
- plaque area or plaque size in other brain regions (5XFAD and WT mice; 5XFAD mice, hippocampus, striatum, thalamus, hypothalamus, versus saline): no significant difference
- plaques in WT brains (5XFAD and WT mice; WT mice, 10 mg/kg s.c. three times a week for 10 weeks): no plaques
- spatial memory deficits induced by NMDAR-antagonist MK801 (rats): counteracted spatial memory deficits
- spatial learning, social behavior, and locomotor activity (rats; healthy rats): had no effect

B1: NL1: recombinant rat neuroligin-1, soluble ectodomain (R&D systems) (protein, UniProt Q62765 46-697, looked up)
extracellular domain: QKLDDVDPLVTTNFGKIRGIKKELNNEILGPVIQFLGVPYAAPPTGEHRFQPPEPPSPWSDIRNATQFAPVCPQNIIDGRLPEVMLPVWFTNNLDVVSSYVQDQSEDCLYLNIYVPTEDVKRISKECARKPGKKICRKGDIRDSGGPKPVMVYIHGGSYMEGTGNLYDGSVLASYGNVIVITVNYRLGVLGFLSTGDQAAKGNYGLLDLIQALRWTSENIGFFGGDPLRITVFGSGAGGSCVNLLTLSHYSEGNRWSNSTKGLFQRAIAQSGTALSSWAVSFQPAKYARILATKVGCNVSDTVELVECLQKKPYKELVDQDVQPARYHIAFGPVIDGDVIPDDPQILMEQGEFLNYDIMLGVNQGEGLKFVENIVDSDDGVSASDFDFAVSNFVDNLYGYPEGKDVLRETIKFMYTDWADRHNPETRRKTLLALFTDHQWVAPAVATADLHSNFGSPTYFYAFYHHCQTDQVPAWADAAHGDEVPYVLGIPMIGPTELFPCNFSKNDVMLSAVVMTYWTNFAKTGDPNQPVPQDTKFIHTKPNRFEEVAWTRYSQKDQLYLHIGLKPRVKEHYRANKVNLWLELVPHLHNLNDISQYTSTTTKVPSTDITLRPTRKNSTPVTSAFPTAKQDDPKQQPSPFSVDQRDYSTELS
modifications: extracellular domain
- effect on Aβ aggregation at low concentration (Aβ1-42): accelerated the aggregation
